System: SGC7901 (human stomach cancer) xenografts
Experiment: SGC7901 xenograft growth inhibition
Type: in vivo
Details: ITE 100-200 mg/kg i.p. once daily
Protocol: All the procedures related to animal handling, care, and the treatment in the study were performed following guidelines of KeyGen Biotechn Co., Ltd. (Nanjing, China), a contract research organization we hired, based on the guidance of the Association for Assessment and Accreditation of Laboratory Animal Care (AAALAC). Animals were checked for any effects of tumor growth and drug treatment on normal behavior such as mobility, food and water consumption, body weight gain/loss (bodyweights were measured every two days), eye/hair matting, and any other abnormal effect. Death and observed clinical signs were recorded. Individual animals with a tumor volume exceeding 3,000 mm^3 or animals of a group with a mean tumor volume exceeding 2,000 mm^3 were euthanized. In addition, animals showing signs of severe distress and/or pain or losing the capability of accessing adequate food or water were humanely sacrificed.
Cell lines HCT116, Siha, MFC were cultured in DMEM medium (high glucose) supplemented with 10% fetal bovine serum (FBS), SW116 and T24 in RPMI-1640 medium with 10% FBS, M14 and A375 in DMEM medium (high glucose) with 10% calf serum (CS), SGC7901 and Ketr-3 in RPMI-1640 medium with 10% CS, and CFPAC-1 in IMDM medium with 10% FBS. All of the cells were cultured, in the presence of 100 U/ml penicillin and 100 μg/ml streptomycin, at 37° C. in an atmosphere of 5% CO2 in air. […] The cells growing in an exponential phase were harvested and counted for tumor inoculation. Cell lines 5180 and U14 were maintained in ascites (peritoneal cavity fluid) of mice and were harvested and counted for tumor inoculation. […]
Tumor volume was measured every two days in two dimensions using a caliper and the volume was calculated with a formula of: V=0.5 a×b^2, where a and b are the long and short diameter (in mm) of a tumor, respectively. […] The TGD was calculated as: TGD=T−C, where T was the time (in days) required for tumors in a drug treated group to reach a predetermined mean tumor volume and C the time (in days) in the control group to reach the same volume. […]

COC(=O)c1csc(C(=O)c2c[nH]c3ccccc23)n1 [ITE, 2-(1′H-indole-3′-carbonyl)-thiazole-4-carboxylic acid methyl ester]
TGD (TGD at Vol. 1,000): 4 days
TGI (%) (TGI at day 18, TGI=(1−ΔT/ΔC)×100%): 50%
Weight Loss (end of therapy relative to beginning): 12%
